Assay [1] addresses Human immunodeficiency virus type 1 reverse transcriptase (Human immunodeficiency virus 1) (UniProt Q72547). The experiment in a line: Inhibition of HIV1 reverse transcriptase.
Assay [2] can be described thus: Inhibition of protein tyrosine kinase.

The source made the active and inactive calls. The rule behind the calls is not given here.

Drawing on ChEMBL document CHEMBL1150686, “Three new sesquiterpenes from the red alga Laurencia perforata” (J Nat Prod, 2003), this text covers Activity for three compounds.

Consider `CC1=CC[C@@]2(C)C(=C(C)C(=O)[C@H](O)[C@@H]2C)CC1`, for which the result in assay [1] and in assay [2] was inactive.
Turning to `C=C1[C@@H]2CC[C@]13[C@H](C)C(=O)[C@@H](O)[C@@H](C)[C@]3(C)C2` (relative stereo), the result in assay [1] and in assay [2] was inactive.
Turning to `CC1=CC[C@@]2(C)C(=C(C)C(=O)[C@H](O)[C@@H]2C)[C@H](O)C1` (relative stereo), the outcome in assay [1] and in assay [2] was inactive.
